Experimental data reported in the NIST ThermoML archive (doi:10.1016/j.tca.2008.05.002).
± gives the expanded uncertainty stated by the source.

Assay: molar heat capacity at saturation pressure
Conditions: Crystal 4, Small (less than 1 g) adiabatic calorimetry

CCCCn1cc[n+](C)c1.O=[N+]([O-])[O-] [1-butyl-3-methylimidazolium nitrate]
Conditions | molar heat capacity [J/K/mol]
5.05 K | 0.5514 ± 0.032
5.29 K | 0.65 ± 0.032
5.54 K | 0.7586 ± 0.034
5.8 K | 0.8834 ± 0.036
6.06 K | 1.024 ± 0.04
6.36 K | 1.195 ± 0.042
6.69 K | 1.409 ± 0.046
7.03 K | 1.636 ± 0.04
7.37 K | 1.896 ± 0.054
7.72 K | 2.169 ± 0.058
8.08 K | 2.473 ± 0.064
8.44 K | 2.803 ± 0.068
8.8 K | 3.145 ± 0.074
9.16 K | 3.525 ± 0.08
9.53 K | 3.922 ± 0.087
9.91 K | 4.346 ± 0.093
10.39 K | 4.934 ± 0.1
10.97 K | 5.66 ± 0.11
11.56 K | 6.445 ± 0.12
12.15 K | 7.288 ± 0.13
12.75 K | 8.194 ± 0.14
13.35 K | 9.123 ± 0.16
13.96 K | 10.11 ± 0.17
14.57 K | 11.12 ± 0.18
15.18 K | 12.21 ± 0.19
15.91 K | 13.62 ± 0.21
16.74 K | 15.21 ± 0.23
17.58 K | 16.85 ± 0.24
18.42 K | 18.5 ± 0.26
19.27 K | 20.2 ± 0.26
20.12 K | 21.95 ± 0.28
21.25 K | 24.37 ± 0.3
22.68 K | 27.47 ± 0.32
24.11 K | 30.69 ± 0.34
25.54 K | 33.91 ± 0.36
26.98 K | 37.09 ± 0.36
28.44 K | 40.37 ± 0.36
29.9 K | 43.58 ± 0.38
31.35 K | 46.78 ± 0.34
32.99 K | 50.29 ± 0.36
34.79 K | 54.05 ± 0.38
36.58 K | 57.69 ± 0.38
38.37 K | 61.25 ± 0.4
40.17 K | 64.77 ± 0.42
42.06 K | 68.4 ± 0.44
44.07 K | 72.18 ± 0.46
46.09 K | 75.84 ± 0.48
48.1 K | 79.42 ± 0.5
50.1 K | 82.76 ± 0.52
52.11 K | 86.06 ± 0.52
54.13 K | 89.28 ± 0.54
56.14 K | 92.32 ± 0.56
58.16 K | 95.28 ± 0.58
60.19 K | 98.2 ± 0.58
62.22 K | 101.03 ± 0.6
64.26 K | 103.75 ± 0.62
66.29 K | 106.43 ± 0.62
68.34 K | 109.04 ± 0.64
70.38 K | 111.5 ± 0.66
72.42 K | 113.97 ± 0.66
74.46 K | 116.39 ± 0.68
76.5 K | 118.68 ± 0.68
78.55 K | 120.96 ± 0.7
80.3 K | 122.59 ± 0.7
80.56 K | 122.99 ± 0.72
80.61 K | 123.11 ± 0.72
82.15 K | 124.42 ± 0.72
82.41 K | 124.84 ± 0.72
82.67 K | 125.14 ± 0.72
84.01 K | 126.23 ± 0.72
84.27 K | 126.67 ± 0.72
84.72 K | 127.15 ± 0.74
85.89 K | 128.02 ± 0.74
86.14 K | 128.46 ± 0.74
87.78 K | 129.91 ± 0.74
88.03 K | 130.27 ± 0.74
89.67 K | 131.68 ± 0.76
89.92 K | 132.02 ± 0.76
91.58 K | 133.45 ± 0.72
91.83 K | 133.79 ± 0.74
93.5 K | 135.16 ± 0.74
93.75 K | 135.5 ± 0.74
95.43 K | 136.91 ± 0.74
95.68 K | 137.25 ± 0.74
97.36 K | 138.62 ± 0.76
97.62 K | 138.98 ± 0.76
99.3 K | 140.37 ± 0.76
99.56 K | 140.68 ± 0.76
101.25 K | 142.08 ± 0.76
102.25 K | 142.93 ± 0.76
103.21 K | 143.75 ± 0.78
104.22 K | 144.6 ± 0.78
105.18 K | 145.34 ± 0.78
106.19 K | 146.25 ± 0.78
107.15 K | 146.93 ± 0.78
108.17 K | 147.88 ± 0.78
109.13 K | 148.52 ± 0.78
110.16 K | 149.43 ± 0.8
111.11 K | 150.07 ± 0.8
112.15 K | 150.98 ± 0.8
113.1 K | 151.62 ± 0.8
114.14 K | 152.51 ± 0.8
115.1 K | 153.15 ± 0.8
116.14 K | 154.02 ± 0.83
117.1 K | 154.68 ± 0.83
118.14 K | 155.53 ± 0.83
119.11 K | 156.13 ± 0.83
120.15 K | 157.05 ± 0.83
121.12 K | 157.68 ± 0.83
122.17 K | 158.58 ± 0.83
123.13 K | 159.23 ± 0.85
124.19 K | 160.07 ± 0.85
125.15 K | 160.68 ± 0.85
126.21 K | 161.54 ± 0.85
127.17 K | 162.15 ± 0.85
128.23 K | 163.05 ± 0.85
129.2 K | 163.65 ± 0.85
130.26 K | 164.54 ± 0.87
131.23 K | 165.12 ± 0.87
132.3 K | 166.01 ± 0.87
133.26 K | 166.61 ± 0.87
134.34 K | 167.5 ± 0.87
135.3 K | 168.06 ± 0.87
136.37 K | 168.99 ± 0.89
137.33 K | 169.59 ± 0.89
138.41 K | 170.52 ± 0.89
139.37 K | 171.1 ± 0.89
140.46 K | 172.05 ± 0.89
141.42 K | 172.55 ± 0.89
142.5 K | 173.51 ± 0.89
143.46 K | 174.12 ± 0.91
144.54 K | 175.06 ± 0.91
145.5 K | 175.61 ± 0.91
146.58 K | 176.59 ± 0.91
147.55 K | 177.16 ± 0.91
148.63 K | 178.1 ± 0.91
149.59 K | 178.69 ± 0.91
150.67 K | 179.61 ± 0.93
151.64 K | 180.2 ± 0.93
152.72 K | 181.14 ± 0.93
153.69 K | 181.74 ± 0.93
154.76 K | 182.69 ± 0.93
155.74 K | 183.23 ± 0.93
156.81 K | 184.24 ± 0.95
157.78 K | 184.76 ± 0.95
158.86 K | 185.75 ± 0.95
159.83 K | 186.31 ± 0.95
160.91 K | 187.26 ± 0.95
161.87 K | 187.84 ± 0.95
162.96 K | 188.75 ± 0.95
163.91 K | 189.21 ± 0.97
165 K | 190.24 ± 0.97
165.95 K | 190.7 ± 0.97
167.05 K | 191.85 ± 0.97
168 K | 192.27 ± 0.97
169.09 K | 193.36 ± 0.97
170.04 K | 193.84 ± 0.97
171.13 K | 194.94 ± 0.99
172.08 K | 195.39 ± 0.99
173.17 K | 196.55 ± 0.99
174.12 K | 196.86 ± 0.99
175.21 K | 198.14 ± 0.99
176.16 K | 198.59 ± 0.99
177.25 K | 199.73 ± 1
178.2 K | 200.16 ± 1
179.28 K | 201.42 ± 1
180.24 K | 201.83 ± 1
181.31 K | 203.03 ± 1
182.28 K | 203.44 ± 1
183.34 K | 204.64 ± 1
184.31 K | 205.05 ± 1
185.37 K | 206.25 ± 1
186.34 K | 206.66 ± 1
187.39 K | 207.86 ± 1
188.36 K | 208.47 ± 1
189.42 K | 209.67 ± 1
190.39 K | 210.08 ± 1
191.44 K | 211.28 ± 1
192.41 K | 211.89 ± 1
193.45 K | 212.89 ± 1
194.43 K | 213.5 ± 1
195.47 K | 214.71 ± 1
196.44 K | 215.31 ± 1
197.48 K | 216.31 ± 1
198.45 K | 216.92 ± 1
199.49 K | 218.13 ± 1
200.46 K | 218.73 ± 1
201.55 K | 219.94 ± 1
202.53 K | 220.54 ± 1
203.67 K | 221.75 ± 1
204.65 K | 222.35 ± 1
205.78 K | 223.56 ± 1
206.76 K | 224.16 ± 1
207.89 K | 225.37 ± 1.2
208.87 K | 225.97 ± 1.2
210 K | 227.38 ± 1.2
210.98 K | 227.78 ± 1.2
212.11 K | 229.19 ± 1.2
213.09 K | 229.6 ± 1.2
214.21 K | 231 ± 1.2
215.19 K | 231.61 ± 1.2
216.3 K | 232.82 ± 1.2
217.29 K | 233.62 ± 1.2
218.4 K | 234.63 ± 1.2
219.38 K | 235.63 ± 1.2
220.49 K | 236.44 ± 1.2
221.47 K | 237.44 ± 1.2
222.58 K | 238.25 ± 1.2
